These results are taken from US7939537B2, “HIV integrase inhibitors” (Istituto Di Ricerche Di Biologia Molecolare P. Angeletti …, priority 2006, dated 2011).

Where only a bound is given, the exact number is not on record here.

In the experiment the test system is HIV. The experiment in a line: Assay for inhibition of HIV replication (spread assay; acute HIV infection of T-lymphoid cells). The format is cell-based. As to conditions: Human immunodeficiency virus 1, tested up to 1 micromolar. The procedure:
Assay for Inhibition of HIV Replication
Assays for the inhibition of acute HIV infection of T-lymphoid cells were conducted in accordance with Vacca, J. P. et al., Proc. Natl. Acad. Sci. USA 1994, 91: 4096. […] The compounds of Examples 6, 8, 9, 14, 15, 21-23 and 29-35 were also tested in the spread assay up to 1 micromolar, but specific IC95 values were not obtained; i.e., the IC95 values for these compounds are greater than 1 micromolar.

`O=C(NCc1ccc(F)cc1)c1nc2ccccn2c(=O)c1O` [Example 1, N-(4-Fluorobenzyl)-3-hydroxy-4-oxo-4H-pyrido[1,2-a]pyrimidine-2-carboxamide]: the IC95 is under 1000 nM.
Under `CN(C(=O)CS(C)(=O)=O)c1cccn2c(=O)c(O)c(C(=O)NCc3ccc(F)cc3)nc12` [Example 2, N-(4-fluorobenzyl)-3-hydroxy-9-{methyl[(methylsulfonyl)acetyl]amino}-4-oxo-4H-pyrido[1,2-a]pyrimidine-2-carboxamide] stands under 1000 nM; under `CCN(CC)C(=O)C(=O)N(CC)c1cccn2c(=O)c(O)c(C(=O)NCc3ccc(F)cc3)nc12` [Example 3, N-(4-fluorobenzyl)-3-hydroxy-9-[(N,N,N′-triethyl)-ethanediamide]-4-oxo-4H-pyrido[1,2-a]pyrimidine-2-carboxamide], under 1000 nM; under `O=C(NCc1ccc(F)cc1)c1nc2c(OCc3ccccc3)cccn2c(=O)c1O` [Example 4, N-(4-fluorobenzyl)-3-hydroxy-9-(benzyloxy)-4-oxo-4H-pyrido[1,2-a]pyrimidine-2-carboxamide], under 1000 nM.
As for `O=C(NCc1ccc(F)cc1)c1nc2ccc(-c3ccccc3N3CCOCC3)cn2c(=O)c1O` [Example 5], the figure is under 1000 nM; as for `CC(=O)N(C)c1cccn2c(=O)c(O)c(C(=O)NCc3ccc(F)cc3)nc12` [Example 6, 9-[acetyl(methyl)amino]-N-(4-fluorobenzyl)-3-hydroxy-4-oxo-4H-pyrido[1,2-a]pyrimidine-2-carboxamide], over 1000 nM.
Under `CN(C(=O)c1ccccc1)c1cccn2c(=O)c(O)c(C(=O)NCc3ccc(F)cc3)nc12` [Example 7, 9-[benzoyl(methyl)amino]-N-(4-fluorobenzyl)-3-hydroxy-4-oxo-4H-pyrido[1,2-a]pyrimidine-2-carboxamide] stands under 1000 nM.
`CNc1cccn2c(=O)c(O)c(C(=O)NCc3ccc(F)cc3)nc12` [Example 8, 9-[methylamino]-N-(4-fluorobenzyl)-3-hydroxy-4-oxo-4H-pyrido[1,2-a]pyrimidine-2-carboxamide] returned an IC95 of over 1000 nM.
Under `CN(C)c1cccn2c(=O)c(O)c(C(=O)NCc3ccc(F)cc3)nc12` [Example 9, 9-[dimethylamino]-N-(4-fluorobenzyl)-3-hydroxy-4-oxo-4H-pyrido[1,2-a]pyrimidine-2-carboxamide] stands over 1000 nM; under `CCNc1cccn2c(=O)c(O)c(C(=O)NCc3ccc(F)cc3)nc12` [Example 10, 9-[ethylamino]-N-(4-fluorobenzyl)-3-hydroxy-4-oxo-4H-pyrido[1,2-a]pyrimidine-2-carboxamide], under 1000 nM.
Under `CN(C)C(=O)C(=O)N(C)c1cccn2c(=O)c(O)c(C(=O)NCc3ccc(F)cc3)nc12` [Example 11, N-(2-{[(4-fluorobenzyl)amino]carbonyl}-3-hydroxy-4-oxo-4H-pyrido[1,2-a]pyrimidin-9-yl)-N,N′,N′-trimethylethanediamide] stands under 1000 nM.
As for `CCN(C(=O)C(=O)N(C)C)c1cccn2c(=O)c(O)c(C(=O)NCc3ccc(F)cc3)nc12` [Example 12, N-(2-{[(4-fluorobenzyl)amino]carbonyl}-3-hydroxy-4-oxo-4H-pyrido[1,2-a]pyrimidin-9-yl)-N-ethyl-N′,N′-dimethylethanediamide], the figure is under 1000 nM; as for `O=C(Nc1cccn2c(=O)c(O)c(C(=O)NCc3ccc(F)cc3)nc12)OCc1ccccc1` [Example 13, benzyl (2-{[(4-fluorobenzyl)amino]carbonyl}-3-hydroxy-4-oxo-4H-pyrido[1,2-a]pyrimidin-9-yl)carbamate], under 1000 nM; as for `O=C(Nc1cccn2c(=O)c(O)c(C(=O)NCc3ccc(F)cc3)nc12)c1ccccc1` [Example 14, 9-[benzoylamino]-N-(4-fluorobenzyl)-3-hydroxy-4-oxo-4H-pyrido[1,2-a]pyrimidine-2-carboxamide], over 1000 nM.
In turn, `CCN(C(=O)c1ccncc1)c1cccn2c(=O)c(O)c(C(=O)NCc3ccc(F)cc3)nc12` [Example 15, 9-[ethyl(isonicotinoyl)amino]-N-(4-fluorobenzyl)-3-hydroxy-4-oxo-4H-pyrido[1,2-a]pyrimidine-2-carboxamide] returned a concentration for an effect of 95% (IC95) of over 1000 nM.
As for `CCN(C(=O)c1ccccn1)c1cccn2c(=O)c(O)c(C(=O)NCc3ccc(F)cc3)nc12` [Example 16, 9-[ethyl(pyridin-2-ylcarbonyl)amino]-N-(4-fluorobenzyl)-3-hydroxy-4-oxo-4H-pyrido[1,2-a]pyrimidine-2-carboxamide], the figure is under 1000 nM.
For `CCCN(C(=O)C(=O)N(C)C)c1cccn2c(=O)c(O)c(C(=O)NCc3ccc(F)cc3)nc12` [Example 17, N-(2-{[(4-fluorobenzyl)amino]carbonyl}-3-hydroxy-4-oxo-4H-pyrido[1,2-a]pyrimidin-9-yl)-N-propyl-N′,N′-dimethylethanediamide], the IC95 was under 1000 nM.
Under `CC(C)CN(C(=O)C(=O)N(C)C)c1cccn2c(=O)c(O)c(C(=O)NCc3ccc(F)cc3)nc12` [Example 18, N-(2-{[(4-fluorobenzyl)amino]carbonyl}-3-hydroxy-4-oxo-4H-pyrido[1,2-a]pyrimidin-9-yl)-N-isobutyl-N′,N′-dimethylethanediamide] stands under 1000 nM; under `CCN(C(=O)C(=O)N1CCOCC1)c1cccn2c(=O)c(O)c(C(=O)NCc3ccc(F)cc3)nc12` [Example 19, N-(4-fluorobenzyl)-3-hydroxy-9-{ethyl[morpholin-4-yl(oxo)acetyl]amino}-4-oxo-4H-pyrido[1,2-a]pyrimidine-2-carboxamide], under 1000 nM.
Under `CCN(C(=O)CN(C)C)c1cccn2c(=O)c(O)c(C(=O)NCc3ccc(F)cc3)nc12` [Example 20, 9-[(N,N-dimethylglycyl)(ethyl)amino]-N-(4-fluorobenzyl)-3-hydroxy-4-oxo-4H-pyrido[1,2-a]pyrimidine-2-carboxamide] stands under 1000 nM; under `CCN(CC)CC(=O)N(CC)c1cccn2c(=O)c(O)c(C(=O)NCc3ccc(F)cc3)nc12` [Example 21, 9-[(N,N-diethylglycyl)(ethyl)amino]-N-(4-fluorobenzyl)-3-hydroxy-4-oxo-4H-pyrido[1,2-a]pyrimidine-2-carboxamide], over 1000 nM.
As for `CCN(C(=O)CN1CCOCC1)c1cccn2c(=O)c(O)c(C(=O)NCc3ccc(F)cc3)nc12` [Example 22, 9-[ethyl(morpholin-4-ylacetyl)amino]-N-(4-fluorobenzyl)-3-hydroxy-4-oxo-4H-pyrido[1,2-a]pyrimidine-2-carboxamide], the figure is over 1000 nM.
In turn, `CCN(C(=O)CN1CCN(C)CC1)c1cccn2c(=O)c(O)c(C(=O)NCc3ccc(F)cc3)nc12` [Example 23, 9-{ethyl[(4-methylpiperazin-1-yl)acetyl]amino}-N-(4-fluorobenzyl)-3-hydroxy-4-oxo-4H-pyrido[1,2-a]pyrimidine-2-carboxamide] yielded an IC95 of over 1000 nM.
Under `CCN(C(=O)c1cscn1)c1cccn2c(=O)c(O)c(C(=O)NCc3ccc(F)cc3)nc12` [Example 24, 9-[ethyl(1,3-thiazol-4-ylcarbonyl)amino]-N-(4-fluorobenzyl)-3-hydroxy-4-oxo-4H-pyrido[1,2-a]pyrimidine-2-carboxamide] stands under 1000 nM; under `CCN(C(=O)c1ccno1)c1cccn2c(=O)c(O)c(C(=O)NCc3ccc(F)cc3)nc12` [Example 25, 9-[ethyl(isoxazol-5-ylcarbonyl)amino]-N-(4-fluorobenzyl)-3-hydroxy-4-oxo-4H-pyrido[1,2-a]pyrimidine-2-carboxamide], under 1000 nM; under `CCN(C(=O)c1nnc(C)o1)c1cccn2c(=O)c(O)c(C(=O)NCc3ccc(F)cc3)nc12` [Example 26, 9-{ethyl[(5-methyl-1,3,4-oxadiazol-2-yl)carbonyl]amino}-N-(4-fluorobenzyl)-3-hydroxy-4-oxo-4H-pyrido[1,2-a]pyrimidine-2-carboxamide], under 1000 nM.
As for `CCN(C(=O)C(=O)N1CCCC1)c1cccn2c(=O)c(O)c(C(=O)NCc3ccc(F)cc3)nc12` [Example 27, 9-{ethyl[oxo(pyrrolidin-1-yl)acetyl]amino}-N-(4-fluorobenzyl)-3-hydroxy-4-oxo-4H-pyrido[1,2-a]pyrimidine-2-carboxamide], the figure is under 1000 nM; as for `CCN(C(=O)C(=O)N1CCN(C)CC1)c1cccn2c(=O)c(O)c(C(=O)NCc3ccc(F)cc3)nc12` [Example 28, 4-[[ethyl(2-{[(4-fluorobenzyl)amino]carbonyl}-3-hydroxy-4-oxo-4H-pyrido[1,2-a]pyrimidin-9-yl)amino](oxo)acetyl]-1-methylpiperazine], under 1000 nM.
As for `Cc1cccn2c(=O)c(O)c(C(=O)NCc3ccc(F)cc3)nc12` [Example 29, N-(4-fluorobenzyl)-3-hydroxy-9-methyl-4-oxo-4H-pyrido[1,2-a]pyrimidine-2-carboxamide], the figure is over 1000 nM; as for `CN(C)Cc1cccn2c(=O)c(O)c(C(=O)NCc3ccc(F)cc3)nc12` [Example 30, 9-[(dimethylamino)methyl]-N-(4-fluorobenzyl)-3-hydroxy-4-oxo-4H-pyrido[1,2-a]pyrimidine-2-carboxamide], over 1000 nM.
`CON(C)Cc1cccn2c(=O)c(O)c(C(=O)NCc3ccc(F)cc3)nc12` [Example 31, N-(4-fluorobenzyl)-3-hydroxy-9-{[methoxy(methyl)amino]methyl}-4-oxo-4H-pyrido[1,2-a]pyrimidine-2-carboxamide] registered an IC95 of over 1000 nM.
Under `O=C(NCc1ccc(F)cc1)c1nc2c(CN3CCOCC3)cccn2c(=O)c1O` [Example 32, N-(4-fluorobenzyl)-3-hydroxy-9-(morpholin-4-ylmethyl)-4-oxo-4H-pyrido[1,2-a]pyrimidine-2-carboxamide] stands over 1000 nM; under `CC(=O)N1CCN(Cc2cccn3c(=O)c(O)c(C(=O)NCc4ccc(F)cc4)nc23)CC1` [Example 33, 9-[(4-acetylpiperazin-1-yl)methyl]-N-(4-fluorobenzyl)-3-hydroxy-4-oxo-4H-pyrido[1,2-a]pyrimidine-2-carboxamide], over 1000 nM.
